Assays:
[1] = in humans; cited from earlier work
[2] = Appearance of formulation made with the drug form; assay type: physicochemical
Protocol: The polyethylene glycol was mixed with about 25% of the required purified water and the Carbopol® dispersed in this mixture. About 56% of the required purified water was added with rapid stirring until the CARBOPOL® was well dispersed and appeared hydrated. The sodium hydroxide was dissolved in a minimum of purified water and added to the bulk with stirring. The S(+)-ibuprofen sodium salt dihydrate was dissolved in a mixture of phenoxyethanol, propylene glycol and remaining purified water and added to the Carbopol® gel with rapid stirring.
The LYCASIN® and glycerin were mixed together. The domiphen bromide was dissolved in the alcohol. The sodium salt was added to this alcoholic solution along with sufficient purified water to produce a solution. The aqueous alcoholic solution was added to the LYCASIN®/glycerin mixture and mixed well. Optional flavourings may be added to the above formulation.
The LYCASIN® and glycerin were mixed together and diluted with a suitable volume of water. The sodium salt was dispersed and dissolved in the mixture. The domiphen bromide was dissolved in the alcohol and this solution added slowly with stirring to the bulk. The formulation was made up to volume and mixed well. Optional flavourings may be added to the formulation.
The powders were sieved through a 30 mesh sieve and blended together, then filled into sachets containing 2000 mg of powder. Optional flavourings may be added to the above mixture.

[3] = topical gel formulation of Example 20 (Carbopol gel base)
[4] = higher strength oral liquid formulation of Example 25
[5] = low strength oral liquid formulation of Example 23

SMILES	Conversion into S(+)-ibuprofen [1]	Appearance of product [2, 3]	Appearance on addition to hot water ([2]; cold relief powder formulation base of Example 27, hot water 70° C. or greater)	Appearance of product [2, 4]	Appearance of product [2, 5]
CC(C)Cc1ccc([C@@H](C)C(=O)O)cc1 [R(−)-ibuprofen, R(−)-2-(4-isobutylphenyl)propionic acid]	partially converted into S(+)-ibuprofen	–	–	–	–
CC(C)Cc1ccc(C(C)C(=O)[O-])cc1.[Na+] (racemic) [sodium salt of ibuprofen racemate, sodium 2-(4-isobutylphenyl)propionate]	–	a totally unsatisfactory product that separated into a clear upper liquid and a cloudy viscous lower layer	–	–	–
CC(C)Cc1ccc([C@H](C)C(=O)O)cc1 [S(+)-ibuprofen free acid, S(+)-2-(4-isobutylphenyl)propionic acid]	–	an opaque product of a high viscosity not suitable for use as a topical rub	an unpalatable oily layer on the surface of the hot water	an unsuitable product with the drug floating on the surface	a poor product with a significant proportion of the S(+)-ibuprofen floating on the surface of the product
CC(C)Cc1ccc([C@H](C)C(=O)[O-])cc1.O.O.[Na+] [S(−)sodium 2-(4-isobutylphenyl)propionate dihydrate]	–	–	–	a clear bright liquid	a bright clear product

Source: patent publication US6525214B1, “Therapeutic agent” (priority 1991, dated 2003)
